PubChem BioAssay AID1918952 (Molecular Pharmacology Branch, DTP, NCI, 2023)
Values joined by “and” are separate entries in the source; they are usually repeats but may differ in a detail not shown here. Equal values may be shown once.

System: LG0703-F948-PDC complex spheroid viability
Assay: Anticancer human tumor LG0703-F948-PDC patient-derived lung adenocarcinoma cell line growth inhibition
Conditions: for viability, T/C: stronger effect = lower value
Outline: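 Complex spheroids of tumor cells with HUVEC and human MSCs, exposed to iadademstat combined with other agents. Each agent tested in half-log steps from near clinical Cmax (else 10 microM top), DMSO ≤0.25%.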

[1] = curve of first compound, second compound 0.1 µM
[2] = curve of first compound, second compound 0.316 µM
[3] = curve of first compound, second compound 1 µM
[4] = curve of first compound, second compound 3.16 µM
[5] = curve of first compound, second compound 10 µM
[6] = second compound 0.1 µM, first compound 0.00949 µM
[7] = second compound 0.1 µM, first compound 0.03 µM
[8] = second compound 0.1 µM, first compound 0.0949 µM
[9] = second compound 0.1 µM, first compound 0.3 µM
[10] = second compound 0.316 µM, first compound 0.00949 µM
[11] = second compound 0.316 µM, first compound 0.03 µM
[12] = second compound 0.316 µM, first compound 0.0949 µM
[13] = second compound 0.316 µM, first compound 0.3 µM
[14] = second compound 1 µM, first compound 0.00949 µM
[15] = second compound 1 µM, first compound 0.03 µM
[16] = second compound 1 µM, first compound 0.0949 µM
[17] = second compound 1 µM, first compound 0.3 µM
[18] = second compound 3.16 µM, first compound 0.00949 µM
[19] = second compound 3.16 µM, first compound 0.03 µM
[20] = second compound 3.16 µM, first compound 0.0949 µM
[21] = second compound 3.16 µM, first compound 0.3 µM
[22] = second compound 10 µM, first compound 0.00949 µM
[23] = second compound 10 µM, first compound 0.03 µM
[24] = second compound 10 µM, first compound 0.0949 µM
[25] = second compound 10 µM, first compound 0.3 µM
[26] = second compound 0.1 µM, first compound 0.949 µM
[27] = second compound 0.1 µM, first compound 3 µM
[28] = second compound 0.316 µM, first compound 0.949 µM
[29] = second compound 0.316 µM, first compound 3 µM
[30] = second compound 1 µM, first compound 0.949 µM
[31] = second compound 1 µM, first compound 3 µM
[32] = second compound 3.16 µM, first compound 0.949 µM
[33] = second compound 3.16 µM, first compound 3 µM
[34] = second compound 10 µM, first compound 0.949 µM
[35] = second compound 10 µM, first compound 3 µM
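Note: spheroids exposed to agents for seven days before readout.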
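Throughout, for viability, T/C: 100% = DMSO vehicle control wells as normalization base.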

Structure (SMILES): Nc1ncn(C2CC(O)C(CO)S2)c(=O)n1 (stereo unspecified) + NC1CC1c1ccc(-c2cccc(O)c2)cc1
- IC50 [1]: > 300 nM
- IC50 [2]: > 300 nM
- IC50 [3]: > 300 nM
- IC50 [4]: > 300 nM
- IC50 [5]: > 300 nM
- viability, T/C (second compound 0.1 µM, first compound 0.000949 µM): 114%
- viability, T/C (second compound 0.1 µM, first compound 0.003 µM): 102%
- viability, T/C [6]: 104%
- viability, T/C [7]: 108%
- viability, T/C [8]: 108%
- viability, T/C [9]: 86.2%
- viability, T/C (second compound 0.316 µM, first compound 0.000949 µM): 106%
- viability, T/C (second compound 0.316 µM, first compound 0.003 µM): 92.7%
- viability, T/C [10]: 91%
- viability, T/C [11]: 107%
- viability, T/C [12]: 102%
- viability, T/C [13]: 81.1%
- viability, T/C (second compound 1 µM, first compound 0.000949 µM): 117%
- viability, T/C (second compound 1 µM, first compound 0.003 µM): 105%
- viability, T/C [14]: 102%
- viability, T/C [15]: 108%
- viability, T/C [16]: 82.4%
- viability, T/C [17]: 84.8%
- viability, T/C (second compound 3.16 µM, first compound 0.000949 µM): 114%
- viability, T/C (second compound 3.16 µM, first compound 0.003 µM): 101%
- viability, T/C [18]: 90.8%
- viability, T/C [19]: 104%
- viability, T/C [20]: 100%
- viability, T/C [21]: 71.5%
- viability, T/C (second compound 10 µM, first compound 0.000949 µM): 104%
- viability, T/C (second compound 10 µM, first compound 0.003 µM): 94.7%
- viability, T/C [22]: 96.8%
- viability, T/C [23]: 105%
- viability, T/C [24]: 103%
- viability, T/C [25]: 77.4%

Structure (SMILES): CC1COCCN1c1cc(C2(S(C)(=N)=O)CC2)nc(-c2ccnc3[nH]ccc23)n1 (stereo unspecified)
- viability, T/C (compound 0.0316 µM): 105% and 90.8%
- viability, T/C (compound 0.1 µM): 101% and 105%
- viability, T/C (compound 0.316 µM): 104% and 100%
- viability, T/C (compound 1 µM): 87.4% and 81.6%
- viability, T/C (compound 3.16 µM): 63% and 65.7%
- viability, T/C (compound 10 µM): 24.9% and 20.9%
- IC50 (curve of compound): 4640 nM and 4620 nM

Structure (SMILES): CC(C)CC(NC(=O)CNC(=O)c1cc(Cl)ccc1Cl)B1OC(=O)CC(CC(=O)O)(C(=O)O)O1 (stereo unspecified) + NC1CCC(NC2CC2c2ccccc2)CC1
- IC50 [1]: 4.54 nM
- IC50 [2]: 4.94 nM
- IC50 [3]: 4.29 nM
- IC50 [4]: 3.05 nM
- IC50 [5]: 1.98 nM
- viability, T/C (second compound 0.1 µM, first compound 0.000316 µM): 118%
- viability, T/C (second compound 0.1 µM, first compound 0.001 µM): 95.6%
- viability, T/C (second compound 0.1 µM, first compound 0.00316 µM): 66.7%
- viability, T/C (second compound 0.1 µM, first compound 0.01 µM): 19.8%
- viability, T/C (second compound 0.1 µM, first compound 0.0316 µM): 2.45%
- viability, T/C (second compound 0.1 µM, first compound 0.1 µM): 0.73%
- viability, T/C (second compound 0.316 µM, first compound 0.000316 µM): 104%
- viability, T/C (second compound 0.316 µM, first compound 0.001 µM): 102%
- viability, T/C (second compound 0.316 µM, first compound 0.00316 µM): 69.4%
- viability, T/C (second compound 0.316 µM, first compound 0.01 µM): 19%
- viability, T/C (second compound 0.316 µM, first compound 0.0316 µM): 2.48%
- viability, T/C (second compound 0.316 µM, first compound 0.1 µM): 0.54%
- viability, T/C (second compound 1 µM, first compound 0.000316 µM): 118%
- viability, T/C (second compound 1 µM, first compound 0.001 µM): 115%
- viability, T/C (second compound 1 µM, first compound 0.00316 µM): 60.8%
- viability, T/C (second compound 1 µM, first compound 0.01 µM): 17%
- viability, T/C (second compound 1 µM, first compound 0.0316 µM): 2.68%
- viability, T/C (second compound 1 µM, first compound 0.1 µM): 1.21%
- viability, T/C (second compound 3.16 µM, first compound 0.000316 µM): 112%
- viability, T/C (second compound 3.16 µM, first compound 0.001 µM): 127%
- viability, T/C (second compound 3.16 µM, first compound 0.00316 µM): 47.6%
- viability, T/C (second compound 3.16 µM, first compound 0.01 µM): 13.8%
- viability, T/C (second compound 3.16 µM, first compound 0.0316 µM): 2.43%
- viability, T/C (second compound 3.16 µM, first compound 0.1 µM): 0.36%
- viability, T/C (second compound 10 µM, first compound 0.000316 µM): 109%
- viability, T/C (second compound 10 µM, first compound 0.001 µM): 97.7%
- viability, T/C (second compound 10 µM, first compound 0.00316 µM): 17.4%
- viability, T/C (second compound 10 µM, first compound 0.01 µM): 6.56%
- viability, T/C (second compound 10 µM, first compound 0.0316 µM): 0.78%
- viability, T/C (second compound 10 µM, first compound 0.1 µM): 0.48%

Structure (SMILES): Nc1ncn(C2CC(O)C(CO)O2)c(=O)n1 (stereo unspecified)
- viability, T/C (compound 0.00316 µM): 85% and 110%
- viability, T/C (compound 0.01 µM): 101% and 104%
- viability, T/C (compound 0.0316 µM): 88.3% and 95.8%
- viability, T/C (compound 0.1 µM): 91.7% and 91.4%
- viability, T/C (compound 0.316 µM): 83.5% and 92.4%
- viability, T/C (compound 1 µM): 79.6% and 91.2%
- IC50 (curve of compound): > 1000 nM

Structure (SMILES): Nc1ccccc1NC(=O)c1ccc(CNC(=O)OCc2cccnc2)cc1 + NC1CCC(NC2CC2c2ccccc2)CC1
- IC50 [1]: 118 nM
- IC50 [2]: 142 nM
- IC50 [3]: 127 nM
- IC50 [4]: 141 nM
- IC50 [5]: 139 nM
- viability, T/C [6]: 110%
- viability, T/C [7]: 99.9%
- viability, T/C [8]: 58.8%
- viability, T/C [9]: 12.6%
- viability, T/C [26]: 1.17%
- viability, T/C [27]: 0.33%
- viability, T/C [10]: 105%
- viability, T/C [11]: 93.8%
- viability, T/C [12]: 70.2%
- viability, T/C [13]: 14.2%
- viability, T/C [28]: 1.51%
- viability, T/C [29]: 0.96%
- viability, T/C [14]: 87.7%
- viability, T/C [15]: 94.8%
- viability, T/C [16]: 59.4%
- viability, T/C [17]: 17%
- viability, T/C [30]: 1.08%
- viability, T/C [31]: 0.48%
- viability, T/C [18]: 112%
- viability, T/C [19]: 109%
- viability, T/C [20]: 68.9%
- viability, T/C [21]: 13.5%
- viability, T/C [32]: 0.24%
- viability, T/C [33]: 0.24%
- viability, T/C [22]: 94.7%
- viability, T/C [23]: 85.2%
- viability, T/C [24]: 67.2%
- viability, T/C [25]: 17%
- viability, T/C [34]: 0.59%
- viability, T/C [35]: 0.92%

Structure (SMILES): CC[C@@]1(O)C(=O)OCc2c1cc1n(c2=O)Cc2cc3c(CN(C)C)c(O)ccc3nc2-1
- viability, T/C (compound 0.000316 µM): 111% and 107%
- viability, T/C (compound 0.001 µM): 97% and 103%
- viability, T/C (compound 0.00316 µM): 96.5% and 94.7%
- viability, T/C (compound 0.01 µM): 92.4% and 88.5%
- viability, T/C (compound 0.0316 µM): 65.7% and 67.3%
- viability, T/C (compound 0.1 µM): 44.6% and 40.1%
- IC50 (curve of compound): 75.4 nM and 66.7 nM

Structure (SMILES): O=C(C=Cc1cccc(S(=O)(=O)Nc2ccccc2)c1)NO + NC1CC1c1ccc(-c2cccc(O)c2)cc1
- IC50 [1]: 61.1 nM
- IC50 [2]: 70.6 nM
- IC50 [3]: 70.9 nM
- IC50 [4]: 74.5 nM
- IC50 [5]: 95.3 nM
- viability, T/C [6]: 113%
- viability, T/C [7]: 74.8%
- viability, T/C [8]: 35.9%
- viability, T/C [9]: 8.61%
- viability, T/C [26]: 1.29%
- viability, T/C [27]: 0.28%
- viability, T/C [10]: 113%
- viability, T/C [11]: 83.5%
- viability, T/C [12]: 39.5%
- viability, T/C [13]: 8.31%
- viability, T/C [28]: 1.3%
- viability, T/C [29]: 1.01%
- viability, T/C [14]: 107%
- viability, T/C [15]: 93.9%
- viability, T/C [16]: 34.8%
- viability, T/C [17]: 7.01%
- viability, T/C [30]: 1.57%
- viability, T/C [31]: 0.1%
- viability, T/C [18]: 92.3%
- viability, T/C [19]: 80.8%
- viability, T/C [20]: 42.2%
- viability, T/C [21]: 6.95%
- viability, T/C [32]: 1.69%
- viability, T/C [33]: 0.15%
- viability, T/C [22]: 90%
- viability, T/C [23]: 86.7%
- viability, T/C [24]: 50%
- viability, T/C [25]: 7.51%
- viability, T/C [34]: 1.22%
- viability, T/C [35]: 1.1%
